In US4585773A, “Isoindolinyl-alkyl-piperazines” (Bristol-Myers Company, priority 1984, dated 1986):
Where two headings read alike, the source gives them in different places.

What was measured:
[1] = tested on: Spontaneously Hypertensive rat; assay: antihypertensive activity, Spontaneously Hypertensive Rat (Table II); assay type: in vivo; details: for antihypertensive effect (in words): conclusion from Table II (SHR, and DOCA for Examples I-IV)
In short: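 Conditioned male SHR (300-400 g), prewarmed at 30° C and restrained; systolic blood pressure and heart rate by tail-cuff before and 2, 4 and 24 h after oral dosing in 0.25% Methocel (5 ml/kg). Values are changes from zero-hour readings; peak ΔBP above 20 mm Hg taken as activity.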

[2] = tested on: DOCA-salt Hypertensive Rat; assay: antihypertensive activity, DOCA-salt Hypertensive Rat (Table II); assay type: in vivo; details: for ΔBP 4 hours / ΔHR 4 hours: DOCA
Procedure: DOCA-salt Hypertensive Rat
Male rats initially weighing 80-100 g, are made hypertensive by surgically implanting two 50 mg pellets of deoxycorticosterone acetate (DOCA) under the skin of the abdomen of each rat and providing 1% saline ad libitum. After three weeks, the 1% saline is replaced with distilled water. One week later, animals are anesthetized with methoxyflurane and a catheter advanced into the aorta via the left common corotid artery to record mean arterial blood pressure (MABP) and heart rate. The heparin-filled catheter is passed beneath the skin and exteriorized behind the head. Two days later, MABP and heart rate are determined before and four hours after oral administration of vehicle (0.25% Methocel in 0.9% saline) or test compound suspended in vehicle at a dose volume equivalent to 5 ml/kg.
Testing was carried out on the compounds of Examples I-XII for antihypertensive activity. In the case of all the compounds testing was carried out on the Spontaneously Hypertensive rat as described hereinbefore. In the case of the compounds of Examples I-IV testing was also carried out on the DOCA-salt Hypertensive Rat. The compound of Example I was tested as its monochloride 2-propanolate hydrate, i.e. as C22 H27 ClN4 O4 S.HCl.0.2(CH3)2 CHOH.0.15H2 O in Tests 1-5; and as the 3/4 mole hydrochloride, i.e. C22 H27 ClN4 O4 S: 3/4 HCl in Tests 3a, 4a, 5a-5d. Test results are set forth in Table II below wherein SHR stands for Spontaneously Hypertensive rat, DOCA stands for DOCA-salt Hypertensive Rat, ΔBP stands for the change in systolic blood pressure in mm Hg, ΔHR stands for the change in mean heart rate in beats per minute and the times set forth are the times after dosing. A peak change in ΔBP of more than 20 is considered as indicating activity.

[3] = tested on: α blocking activity (phenylephrine); assay: in vivo α blocking activity, phenylephrine (PE) as α-agonist (Table III); design: species or system rat; ED50: unit not given beside the values; details: for Average Dose Shift: ED50 after/before drug, PE; for in vivo α blocking activity (in words): conclusion from Table III; for ED50: iv
In short: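 Rats received phenylephrine or norepinephrine as α-agonist before and after test drug, given intravenously except oral in Tests 2a, 3, 3a and 26-29. ED50 is the average interpolated agonist dose raising mean arterial pressure by 50 mm Hg; dose shift is the post-drug/pre-drug ED50 ratio.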

[4] = target: α1; assay: in vitro α1 binding, [3H]WB-4101 (Table IV); details: for IC50: [3H]WB-4101, brain tissue, 50 mM Hepes.KOH, pH 7.4, read-out: α1 Binding IC50
In short: (§1)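 Brain tissue membranes incubated with test compound and radioligand, [3H]WB-4101 for α1 or [3H]Clonidine for α2, in 50 mM Hepes.KOH, pH 7.4. Bound radioligand separated and counted. IC50 for 50% inhibition of specific binding obtained by linear regression of probit binding against compound concentration.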

[5] = tested on: α2; assay: in vitro α2 binding, [3H]Clonidine (Table IV); details: for IC50: [3H]Clonidine, brain tissue, 50 mM Hepes.KOH, pH 7.4, read-out: α2 Binding IC50
In short: as §1

[6] = SHR, 3.0 mg/kg oral, as 3/4 mole hydrochloride
[7] = SHR, 30 mg/kg oral, as 3/4 mole hydrochloride
[8] = SHR, 3.0 to 30 mg/kg body weight
[9] = 0.3 mg/kg oral, as 3/4 mole hydrochloride
[10] = 3.0 mg/kg oral, as 3/4 mole hydrochloride
[11] = 30 mg/kg oral, as 3/4 mole hydrochloride
[12] = 100 mg/kg oral, as 3/4 mole hydrochloride

COc1ccccc1N1CCN(CCCN2Cc3cc(Cl)c(S(N)(=O)=O)cc3C2=O)CC1 [Example I, 6-chloro-2,3-dihydro-2-[3-[4-(2-methoxyphenyl)-1-piperazinyl]propyl]-3-oxo-1H-isoindole-5-sulfonamide]
ΔBP 4 hours ([1]; SHR, 0.3 mg/kg oral): -18 ± 6 mm Hg
ΔHR 4 hours ([1]; SHR, 0.3 mg/kg oral): 11 ± 3 beats per minute
ΔBP 4 hours ([1]; SHR, 3.0 mg/kg oral): -43 ± 7 mm Hg
ΔHR 4 hours ([1]; SHR, 3.0 mg/kg oral): 10 ± 15 beats per minute
ΔBP 2 hours [1, 6]: -23 ± 8 mm Hg
ΔBP 4 hours [1, 6]: -10 ± 5 mm Hg
ΔHR 2 hours [1, 6]: 8 ± 10 beats per minute
ΔHR 4 hours [1, 6]: 14 ± 18 beats per minute
ΔBP 2 hours ([1]; SHR, 30 mg/kg oral): -84 ± 10 mm Hg
ΔHR 2 hours ([1]; SHR, 30 mg/kg oral): 16 ± 15 beats per minute
ΔBP 2 hours [1, 7]: -97 ± 10 mm Hg
ΔBP 4 hours [1, 7]: -52 ± 13 mm Hg
ΔHR 2 hours [1, 7]: 16 ± 8 beats per minute
ΔHR 4 hours [1, 7]: 2 ± 9 beats per minute
systolic blood pressure / antihypertensive activity (in words) [1, 8]: dose-dependent decrease in systolic blood pressure
time at which antihypertensive effect seen [1, 8]: about two
antihypertensive effect (in words) [1]: good antihypertensive effect without significantly affecting heart rate
antihypertensive activity (in words) ([2]; DOCA-hypertensive rat): demonstrates activity in the DOCA-hypertensive rat
ΔBP 4 hours [2, 9]: -14 ± 5 mm Hg
ΔHR 4 hours [2, 9]: -8 ± 20 beats per minute
ΔBP 4 hours [2, 10]: -15 ± 6 mm Hg
ΔHR 4 hours [2, 10]: -6 ± 24 beats per minute
ΔBP 4 hours ([2]; 30 mg/kg oral): -49 ± 9 mm Hg
ΔHR 4 hours ([2]; 30 mg/kg oral): 59 ± 28 beats per minute
ΔBP 4 hours [2, 11]: -53 ± 9 mm Hg
ΔHR 4 hours [2, 11]: 53 ± 26 beats per minute
ΔBP 4 hours [2, 12]: -75 ± 3 mm Hg
ΔHR 4 hours [2, 12]: 23 ± 32 beats per minute
Average Dose Shift ([3]; dose 30, oral): 33 ± 11
in vivo α blocking activity (in words) [3]: active as in vivo α blockers
ED50 [3]: 161.8
IC50 [4]: 1.48 nM
α1 binding activity (in words) ([4]; listed as MJ 15037): demonstrates activity in binding both α1 and α2 sites
α2 binding activity (in words) [5]: α2 binding activity
IC50 [5]: 555 nM
α2 binding activity (in words) ([5]; listed as MJ 15037): demonstrates activity in binding both α1 and α2 sites

COc1ccccc1N1CCN(CCN2Cc3cc(Cl)c(S(N)(=O)=O)cc3C2=O)CC1 [Example III, 6-Chloro-2,3-dihydro-2-[2-[4-(2-methoxyphenyl)-1-piperazinyl]ethyl]-3-oxo-1H-isoindole-5-sulfonamide]
ΔBP 2 hours ([1]; SHR, 30 mg/kg oral): -47 ± 14 mm Hg
ΔBP 4 hours ([1]; SHR, 30 mg/kg oral): -69 ± 20 mm Hg
ΔHR 2 hours ([1]; SHR, 30 mg/kg oral): 10 ± 3 beats per minute
ΔHR 4 hours ([1]; SHR, 30 mg/kg oral): 10 ± 10 beats per minute
antihypertensive effect (in words) [1]: good antihypertensive effect without significantly affecting heart rate
ΔBP 4 hours ([2]; 30 mg/kg oral): -62 ± 13 mm Hg
ΔHR 4 hours ([2]; 30 mg/kg oral): 63 ± 32 beats per minute
Average Dose Shift ([3]; dose 10, intravenous): dose too high
in vivo α blocking activity (in words) [3]: active as in vivo α blockers
ED50 [3]: 41.0
IC50 [4]: 23.4 nM
α2 binding activity (in words) [5]: α2 binding activity
IC50 [5]: 806 nM
